Laboratory results as given in patent publication US20230144344A1, “COMPOSITION FOR PREVENTING OR TREATING CARDIOVASCULAR AND METABOLIC DISEASES COMPRISING ELAEOCARPUS PETIOLATUS” (SEOUL NATIONAL UNIVERSITY HOSPITAL, priority 2020, published 2023).

What was measured:
Resistin-CAP1 binding = target: T1, Resistin-CAP1 binding (Homo sapiens, UniProt Q9HD89); experiment: Resistin-CAP1 competitive binding assay (enzyme immunological method); conditions: for binding inhibitory activity of Resistin-CAP1: 25 μM, 50 μM, and 100 μM, FIG. 8; for Resistin-CAP1 binding inhibitory effect: in words, FIG. 5a-5c
T1 sequence (Q9HD89 19-108): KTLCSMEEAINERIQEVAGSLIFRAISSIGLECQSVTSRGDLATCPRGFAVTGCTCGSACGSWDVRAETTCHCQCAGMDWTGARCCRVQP
Description: Recombinant CAP-1 protein was attached to a plate for immunoassay overnight, washed, and then the attachment of other proteins was blocked with 1% BSA/PBS solution, and the recombinant Resistin to which mouse Fc was attached and the sample were pre-reacted for 1 hour. Then, the solution was dispensed on the plate and reacted at room temperature for 2 hours. After washing the plate, HRP to be attached to the mFc of Resistin bound to CAP-1 was dispensed and reacted for 1 hour. After washing, the substrate was dispensed and reacted for 30 minutes by HRP, and absorbance was measured at a wavelength of 450 nm with a microplate meter.

[1] = test system: Resistin-induced TNF-α production in THP-1 cells; experiment: TNF-alpha assay: Resistin-induced TNF-α production in THP-1 cells (ELISA); assay type: cell-based, human; conditions: for inhibitory effect on TNF-α induced by Resistin: in words, summary of Table 3b
Description: TNF-alpha assay was performed to examine the anti-inflammatory effect induced by the Resistin-CAP1 binding on the Elaeocarpus petiolatus extracts, fractions, and single compounds isolated therefrom.
After culturing for 1 hour, 2 μg/mL of human recombinant Resistin (Biovision) was treated and further cultured for 6 hours. Thereafter, the supernatant was recovered and stored at −70° C.
For TNF-alpha assay, Human TNF-alpha ELISA kit (BD bioscience) was used and analyzed according to the manufacturer's protocol.

THP-1 cells = experiment: Cell viability of THP-1 cells (CytoX)
Description: After 1 hour, each sample was treated at a concentration of 5 μM. After culturing for 24 hours, 5 μL of CytoX (LPS solution, Korea) solution was added into each well and incubated for another 4 hours. Then, absorbance was measured at 450 nm. The cell viability was calculated according to the following equation with the value of the negative control treated with DMSO as 100%.

[2] = 10 μg/mL, RETN +, THP-1 cells, isolated compounds

| Compound | binding inhibitory activity of Resistin-CAP1 (Resistin-CAP1 binding) | Resistin-CAP1 binding inhibitory effect (Resistin-CAP1 binding) | TNF-α Inhibition Rate (%, Average ± Standard Deviation) ([1]; 5 μg/mL, RETN +, THP-1 cells) [%] | TNF-α Inhibition Rate (%, Average ± Standard Deviation) [1, 2] [%] | TNF-α Inhibition Rate (%, Average ± Standard Deviation) ([1]; 20 μg/mL, RETN +, THP-1 cells) [%] | inhibitory effect on TNF-α induced by Resistin [1] | Viability (%, Average ± Standard Deviation) (THP-1 cells; 2.5 μg/mL) [%] | Viability (%, Average ± Standard Deviation) (THP-1 cells; 5 μg/mL) [%] | Viability (%, Average ± Standard Deviation) (THP-1 cells; 10 μg/mL, isolated compounds) [%] | Viability (%, Average ± Standard Deviation) (THP-1 cells; 20 μg/mL) [%] | inhibition at 5 µg/mL ([1]; Homo sapiens, 5 μg/mL, RETN +, THP-1 cells, read-out: TNF-α Inhibition Rate (%, Average ± Standard Deviation)) [%] | inhibition at 10 µg/mL ([1]; Homo sapiens, 10 μg/mL, RETN +, THP-1 cells, isolated compounds, read-out: TNF-α Inhibition Rate (%, Average ± Standard Deviation)) [%] | inhibition at 20 µg/mL ([1]; Homo sapiens, 20 μg/mL, RETN +, THP-1 cells, read-out: TNF-α Inhibition Rate (%, Average ± Standard Deviation)) [%] |
| --- | --- | --- | --- | --- | --- | --- | --- | --- | --- | --- | --- | --- | --- |
| C[C@H]1O[C@@H](Oc2c(-c3cc(O)c(O)c(O)c3)oc3cc(O)cc(O)c3c2=O)[C@@H](O)[C@@H](O)[C@@H]1O [Myricetin-3-O-α-L-rhamnoside (5E2), Myricetin-3-O-α-L-rhamnoside] | inhibited the binding of Resistin-CAP1 in a concentration-dependent manner | concentration-dependent inhibitory effect | 28.57 ± 6.79 | 24.13 ± 3.31 | 33.64 ± 9.21 | exhibited an inhibitory effect on TNF-α production | 99.54 ± 3.22 | 106.14 ± 0.93 | 98.85 ± 1.07 | 100.12 ± 0.64 | – | – | – |
| Isorhamnetin-3-O-β-D-hexoside [Isorhamnetin-3-O-β-D-hexoside (6E)] | – | concentration-dependent inhibitory effect | 43.06 ± 10.44 | 51.29 ± 5.76 | 59.53 ± 9.02 | exhibited an inhibitory effect on TNF-α production | 101.71 ± 4.56 | 101.88 ± 0.10 | 95.02 ± 0.20 | 94.72 ± 0.28 | – | – | – |
| O=c1c(O)c(-c2cc(O)c(O)c(O)c2)oc2cc(O)cc(O)c12 [myricetin, Myricetin, reference compound] | no inhibitory activity | – | – | – | – | – | – | – | – | – | – | – | – |
| O=c1oc2c(O)c(O)cc3c(=O)oc4c(O)c(O)cc1c4c23 [Ellagic acid (6D), Ellagic acid] | – | concentration-dependent inhibitory effect | – | – | – | exhibited an inhibitory effect on TNF-α production | 96.89 ± 0.05 | 98.73 ± 0.91 | 94.38 ± 0.13 | 89.21 ± 1.01 | 16.4 ± 5.12 | 27.4 ± 4.5 | -18.6 ± 3.16 |
